Experimental data: patent publication US20080299592A1, “Red-Shifted Luciferase” (priority 2007, published 2008)
“Also recorded” adds a separate entry of the source.

What was measured:
mice = details: cited from earlier work
[1] = tested on: tetracysteine-tagged protein; experiment: Binding/labeling of tetracysteine-tagged protein by bis-arsenical dyes (MALDI-MS); details: for binding to tetracysteine-tagged protein: MALDI-MS, canonical tetracysteine tag
tetracysteine tag = details: FlAsH / tetracysteine tag; Adams et al. 2002; read-out: dissociation constant; cited from earlier work
HeLa cells = experiment: Intracellular staining of mammalian tissue culture cells (HeLa) with bis-arsenical dyes; type: cell-based; details: absence of tetracysteine-tagged proteins and thiol competitors
[2] = tested on: tetracysteine-tagged firefly luciferase; experiment: BRET from tetracysteine-tagged firefly luciferase constructs to ReAsH; type: biochemical; details: for BRET: to ReAsH, purified TC-tagged luciferase constructs, Table 1; for efficiency of BRET (apparent): treatment with ReAsH
Excerpt: Firefly luciferase fusion proteins with an optimized tetracysteine (TC) tag ([…]; SEQ ID NO:1) (Martin et al., Nature Biotechnology, 2005, 23:1308-14) fused onto either the amino (TCLuc1) or carboxy (TCLuc2) terminus of the luciferase protein (Promega's pGL3 (GenBank No. U47295.2)) were cloned and expressed (see list in Table 1). The proteins were expressed in E. Coli as GST fusions, purified by glutathione agarose affinity chromatography, and eluted as the TC-tagged protein by cleavage with PreScission™ protease.
The emission spectrum is sharpened, such that the maximum at 608 nm is actually higher than the 560 nm peak of luciferase (FIG. 3).
To help evaluate the role of distance and orientation on the BRET efficiency, additional N-terminal fusions of the TC tag were constructed (Table 1). […] The best-performing TCLuc1 fusion was cloned into pcDNA3.1 for expression in mammalian tissue culture cells. This construct lacks a C-terminal peroxisomal targeting sequence, and thus the expressed luciferase will localize to the cytoplasm.

Molecule	BRET [2]	efficiency of BRET (apparent) [2]	binding to tetracysteine-tagged protein [1]	intracellular staining (HeLa cells)	further results
CN(Cc1cnc2nc(N)nc(N)c2n1)c1ccc(C(=O)N[C@@H](CCC(=O)O)C(=O)O)cc1 [methotrexate]					LD50 relative to melarsonyl (mice; mouse, in vivo): two-fold lower LD50 than melarsonyl
FlAsH [reference compound]			binding	bright intracellular staining	Kd (tetracysteine tag): ~4 pM
O=c1ccc2nc3ccc(O)c([As]4SCCS4)c3oc-2c1[As]1SCCS1 [ReAsH, reference compound]			binding	bright intracellular staining	
bis-arsenical oxazine 170 [As2Ox170]			fails to bind; also recorded: lack of binding	intracellular staining; also recorded: highly fluorescent within cells	fluorescent labeling of tetracysteine-tagged proteins [1]: fails to fluorescently label
Nc1ccc([As](=O)(O)O)cc1 [arsanilic acid]					LD50 (mice; mice): 248 mg/kg

Now from value to molecule, other results behind:

BRET [2]	efficiency of BRET (apparent) [2]	Molecule	binding to tetracysteine-tagged protein [1]	intracellular staining (HeLa cells)	further results
~50%	about 50%	TCLuc3: N-terminal TC-tagged luciferase with flexible (Gly-Ser)3 repeat spacer, SEQ ID NO:4 (protein) GPLGSFLNCCPGCCMEPGSGSGSGSMEDAKNIKKGPAPFYPLEDGTAGEQLHKAMKRYALVPGTIAFTDAHIEVDITYAEYFEMSVRLAEAMKRYGLNTNHRIVVCSENSLQFFMPVLGALFIGVAVAPANDIYNERELLNSMGISQPTVVFVSKKGLQKILNVQKKLPIIQKIIIMDSKTDYQGFQSMYTFVTSHLPPGFNEYDFVPESFDRDKTIALIMNSSGSTGLPKGVALPHRTACVRFSHARDPIFGNQIIPDTAILSVVPFHHGFGMFTTLGYLICGFRVVLMYRFEEELFLRSLQDYKIQSALLVPTLFSFFAKSTLIDKYDLSNLHEIASGGAPLSKEVGEAVAKRFHLPGIRQGYGLTETTSAILITPEGDDKPGAVGKVVPFFEAKVVDLDTGKTLGVNQRGELCVRGPMIMSGYVNNPEATNALIDKDGWLHSGDIAYWDEDEHFFIVDRLKSLIKYKGYQVAPAELESILLQHPNIFDAGVAGLPDDDAGELPAAVVVLEHGKTMTEKEIVDYVASQVTTAKKLRGGVVFVDEVPKGLTGKLDARKIREILIKAKKGGKIAV			
~80%	about 80%	TCLuc1: Firefly luciferase with optimized tetracysteine tag fused at the amino terminus, SEQ ID NO:2 (protein) GPLGSFLNCCPGCCMEPGSMEDAKNIKKGPAPFYPLEDGTAGEQLHKAMKRYALVPGTIAFTDAHIEVDITYAEYFEMSVRLAEAMKRYGLNTNHRIVVCSENSLQFFMPVLGALFIGVAVAPANDIYNERELLNSMGISQPTVVFVSKKGLQKILNVQKKLPIIQKIIIMDSKTDYQGFQSMYTFVTSHLPPGFNEYDFVPESFDRDKTIALIMNSSGSTGLPKGVALPHRTACVRFSHARDPIFGNQIIPDTAILSVVPFHHGFGMFTTLGYLICGFRVVLMYRFEEELFLRSLQDYKIQSALLVPTLFSFFAKSTLIDKYDLSNLHEIASGGAPLSKEVGEAVAKRFHLPGIRQGYGLTETTSAILITPEGDDKPGAVGKVVPFFEAKVVDLDTGKTLGVNQRGELCVRGPMIMSGYVNNPEATNALIDKDGWLHSGDIAYWDEDEHFFIVDRLKSLIKYKGYQVAPAELESILLQHPNIFDAGVAGLPDDDAGELPAAVVVLEHGKTMTEKEIVDYVASQVTTAKKLRGGVVFVDEVPKGLTGKLDARKIREILIKAKKGGKIAV			
inactive	complete loss of luciferase activity	TCLuc5: N-terminal TC-tagged Δ2-luciferase, truncated, SEQ ID NO:6 (protein) GPLGSFLNCCPGCCDAKNIKKGPAPFYPLEDGTAGEQLHKAMKRYALVPGTIAFTDAHIEVDITYAEYFEMSVRLAEAMKRYGLNTNHRIVVCSENSLQFFMPVLGALFIGVAVAPANDIYNERELLNSMGISQPTVVFVSKKGLQKILNVQKKLPIIQKIIIMDSKTDYQGFQSMYTFVTSHLPPGFNEYDFVPESFDRDKTIALIMNSSGSTGLPKGVALPHRTACVRFSHARDPIFGNQIIPDTAILSVVPFHHGFGMFTTLGYLICGFRVVLMYRFEEELFLRSLQDYKIQSALLVPTLFSFFAKSTLIDKYDLSNLHEIASGGAPLSKEVGEAVAKRFHLPGIRQGYGLTETTSAILITPEGDDKPGAVGKVVPFFEAKVVDLDTGKTLGVNQRGELCVRGPMIMSGYVNNPEATNALIDKDGWLHSGDIAYWDEDEHFFIVDRLKSLIKYKGYQVAPAELESILLQHPNIFDAGVAGLPDDDAGELPAAVVVLEHGKTMTEKEIVDYVASQVTTAKKLRGGVVFVDEVPKGLTGKLDARKIREILIKAKKGGKIAV			
~50%	about 50%	TCLuc2: Firefly luciferase with optimized tetracysteine tag fused at the carboxy terminus, SEQ ID NO:3 (protein) GPLGSMEDAKNIKKGPAPFYPLEDGTAGEQLHKAMKRYALVPGTIAFTDAHIEVDITYAEYFEMSVRLAEAMKRYGLNTNHRIVVCSENSLQFFMPVLGALFIGVAVAPANDIYNERELLNSMGISQPTVVFVSKKGLQKILNVQKKLPIIQKIIIMDSKTDYQGFQSMYTFVTSHLPPGFNEYDFVPESFDRDKTIALIMNSSGSTGLPKGVALPHRTACVRFSHARDPIFGNQIIPDTAILSVVPFHHGFGMFTTLGYLICGFRVVLMYRFEEELFLRSLQDYKIQSALLVPTLFSFFAKSTLIDKYDLSNLHEIASGGAPLSKEVGEAVAKRFHLPGIRQGYGLTETTSAILITPEGDDKPGAVGKVVPFFEAKVVDLDTGKTLGVNQRGELCVRGPMIMSGYVNNPEATNALIDKDGWLHSGDIAYWDEDEHFFIVDRLKSLIKYKGYQVAPAELESILLQHPNIFDAGVAGLPDDDAGELPAAVVVLEHGKTMTEKEIVDYVASQVTTAKKLRGGVVFVDEVPKGLTGKLDARKIREILIKAKKGGKIAVFLNCCPGCCMEP			
quenches	quenching of luciferase emission	TCLuc4: N-terminal TC-tagged luciferase with truncated amino acids between tag and luciferase, SEQ ID NO:5 (protein) GPLGSFLNCCPGCCMEDAKNIKKGPAPFYPLEDGTAGEQLHKAMKRYALVPGTIAFTDAHIEVDITYAEYFEMSVRLAEAMKRYGLNTNHRIVVCSENSLQFFMPVLGALFIGVAVAPANDIYNERELLNSMGISQPTVVFVSKKGLQKILNVQKKLPIIQKIIIMDSKTDYQGFQSMYTFVTSHLPPGFNEYDFVPESFDRDKTIALIMNSSGSTGLPKGVALPHRTACVRFSHARDPIFGNQIIPDTAILSVVPFHHGFGMFTTLGYLICGFRVVLMYRFEEELFLRSLQDYKIQSALLVPTLFSFFAKSTLIDKYDLSNLHEIASGGAPLSKEVGEAVAKRFHLPGIRQGYGLTETTSAILITPEGDDKPGAVGKVVPFFEAKVVDLDTGKTLGVNQRGELCVRGPMIMSGYVNNPEATNALIDKDGWLHSGDIAYWDEDEHFFIVDRLKSLIKYKGYQVAPAELESILLQHPNIFDAGVAGLPDDDAGELPAAVVVLEHGKTMTEKEIVDYVASQVTTAKKLRGGVVFVDEVPKGLTGKLDARKIREILIKAKKGGKIAV			
